Patent US8282926B2, “CCR5-specific antibodies with HIV neutralizing activity that recognize a linear dodecapeptide that mimics a conformational epitope in the second extracellular loop of CCR5” (The United States of America, as Represented by the …, priority 2004, dated 2012)

What was measured:
[1] = test system: mAb 2D7; test: Peptide ELISA: mAb 2D7 binding to biotinylated peptides captured on streptavidin; parameters: species or system mouse; details: for binding of mAb 2D7 to peptide in ELISA: biotinylated peptide captured by streptavidin
Description: The bound antibodies were quantified by HRP-conjugated goat anti-mouse IgG antibody. […] Microtiter wells, coated with mAb 2D7 at 200 ng/well, were incubated with serially diluted synthetic 2D7-2SK peptide or with a control peptide (CGRAARIGFPGAYTTKNG) (SEQ ID NO:3) for 30 min at room temperature, p2D7-2SK phages were then added to all wells (10^9 phages/well), followed by addition of HRP-conjugated anti-phage antibodies. […] MAb 2D7 (50 ng/100 μl/well) was added to plates coated with either unmodified biotin-2D7-2SK peptide or mutated biotin-2D7-2SK peptide derivatives (Table 1), all captured on streptavidin coated wells. The bound 2D7 antibodies were quantified by HRP-conjugated goat anti-mouse IgG antibody. The absorbance value (0.49) of mAb 2D7 binding to 2D7-2SK peptide (unmodified) is represented as 100% control binding.
A. Materials. […] Monoclonal antibody (mAb) 2D7 was purchased from BD Pharmingen (San Diego, Calif.). Immunoglobulin and HRP (horseradish peroxidase) conjugated secondary antibodies used for ELISA were obtained from Jackson Immuno Research Laboratories (West Grove, Pa.). Buffers and substrates for ELISA were purchased from KPL Biotech (Gaithersburg, Md.). New Zealand Rabbits were procured from Charles River (Wilmington, Mass.). B. Epitope mapping using phage display library. A random, linear, dodecapeptide-phage display library (Ph.D-12, New England Biolabs) was used for mAb 2D7 epitope mapping. Affinity selection of the phage clones from the random peptide library was carried out per the manufacturer's instructions with minor modifications. Microtiter wells were coated with 200 ng mAb 2D7 in 100 μl PBS, pH 7.4, at 4° C. for 12 h followed by 1 h at room temperature (RT). The wells were washed with PBS containing 0.05% Tween-20 (PBST) and blocked with EMEM containing 5% FBS at RT for 2 h. The phage library (1×10^10 phages/100 μl) was added to the blocked wells and incubated at RT for 1 h. Unbound phages were washed-off with ten washes of PBST followed by three washes with PBS. The bound phages were eluted at low pH by incubation with elution buffer (0.1 N Gly.HCl, pH 2.2 containing 1 mg/ml BSA) at 37° C. for 10 min. Eluent phages were neutralised with 6 μl of 2 M Tris (pH unadjusted) per 100 μl phage eluate. After four rounds of biopanning, the phage clones were analysed by DNA sequencing and affinity-capture phage ELISA. C. Phage ELISA. Phages used for ELISA were derived from clones selected after the fourth round of panning. Microtiter plates coated with 200 ng of mAb 2D7 were blocked with EMEM containing 5% FBS (blocking solution). The phages (10^10/100 μl/well) diluted in blocking solution were then added and incubated for 1 h at room temperature (RT). The plates were washed three times with PBST prior to addition of […] anti-phage antibody (GE Healthcare, Piscataway, N.J.), and the reaction was quantified using ABTS substrate. Absorbance was measured at 405 nm. D. Peptide ELISA. Peptides were biotinylated using maleimide PEO2-Biotin reagent as per manufacturer's instructions (Pierce Biotech, Rockford, Ill.). The biotinylated peptide ([…]) was captured onto wells coated with 200 ng of streptavidin. After blocking with EMEM containing 5% FBS, serial dilutions of mAb 2D7 in blocking solution were added to each well, incubated for 1 hr at RT, followed by addition of peroxidase-conjugated goat anti-mouse IgG. The reaction was quantified using ABTS substrate. Absorbance was measured at 405 nm. […]

[2] = test system: mAb 2D7; test: Competition phage ELISA using synthetic peptides; format: binding, mouse; details: free peptide, FIG. 3B
[3] = test system: PM1 (CD4+/CCR5+) cells and 12E1 cells expressing HIV-1 envelope; test: Fusion-inhibition (syncytium-formation) assay, PM1 cells with 12E1 cells expressing HIV-1 envelope; format: cell-based, human
[4] = test system: 2D7-2SK peptide; test: Peptide ELISA: antibody binding to biotinylated 2D7-2SK peptide; details: ELISA / binding assay
Description: IgG antibodies from rabbit immunized subcutaneously with KLH-conjugated 2D7-2SK peptide were used in peptide and Cell ELISA. […] Specific antibody binding was measured by HRP-conjugated goat anti-rabbit IgG antibody.
A. Materials. […] Monoclonal antibody (mAb) 2D7 was purchased from BD Pharmingen (San Diego, Calif.). Immunoglobulin and HRP (horseradish peroxidase) conjugated secondary antibodies used for ELISA were obtained from Jackson Immuno Research Laboratories (West Grove, Pa.). Buffers and substrates for ELISA were purchased from KPL Biotech (Gaithersburg, Md.). New Zealand Rabbits were procured from Charles River (Wilmington, Mass.). B. Epitope mapping using phage display library. A random, linear, dodecapeptide-phage display library (Ph.D-12, New England Biolabs) was used for mAb 2D7 epitope mapping. Affinity selection of the phage clones from the random peptide library was carried out per the manufacturer's instructions with minor modifications. […] After four rounds of biopanning, the phage clones were analysed by DNA sequencing and affinity-capture phage ELISA. […] The plates were washed three times with PBST prior to addition of […] anti-phage antibody (GE Healthcare, Piscataway, N.J.), and the reaction was quantified using ABTS substrate. Absorbance was measured at 405 nm. […] The reaction was quantified using ABTS substrate. Absorbance was measured at 405 nm. […]

## E-W-Q-K-E-G-L-V-T-L-W-L-G-G-G-G-S-C (EWQKEGLVTLWLGGGGSC) [2D7-2SK]
[1]
  binding of mAb 2D7 to peptide in ELISA: concentration-dependent specific reactivity
[1]; mAb 2D7 50 ng/100 μl/well, represented as 100% control binding, FIG. 3C
  absorbance value of mAb 2D7 binding to peptide: 0.49
[2]
  inhibition of binding of phage p2D7-2SK to mAb 2D7-coated plates: inhibited
[3]; peptide alone
  inhibitory activity of peptide by itself in the fusion assay: did not demonstrate any inhibitory activity

## E-W-Q-R-E-G-L-V-T-L-W-L-G-G-G-G-S-C (EWQREGLVTLWLGGGGSC) [2D7-2SK-K4R]
[1]
  binding of mAb 2D7 to peptide in ELISA: completely lost binding

## F-C-A-L-D-G-D-F-G-W-L-A-P-A-C (FCALDGDFGWLAPAC) [MD23, reference compound]
[1]
  binding of mAb 2D7 to peptide in ELISA: did not bind

## Q-L-W-L-G-W-T-E-L-E-G-V-K-G-G-G-S-C (QLWLGWTELEGVKGGGSC) [2D7-2SK-SCR, reference compound]
[1]
  binding of mAb 2D7 to peptide in ELISA: not

B1: ScFv-SK-34: single chain human monoclonal antibody against peptide 2D7-2SK; VH SEQ ID NO:12, VL SEQ ID NO:14 (antibody, listed as Homo sapiens, V domains shown)
VH: EVQLLESGGGLVQPGGSLRLSCAASGFTFDDYGMSWVRQAPGKGLEWVSVISASGGSTYYADSVNGRFTISRDNSKNTLYLQMNSLRAEDTAVYYCARYLPGLWAMDVWGQGTLVTVSSGSA
VL: DIVLTQPPSASGTPGQRVTISCTGSRSNIGKNYVSWYQQLPGKAPKLLIYKNYQRPSGVPDRFSGSKSGTSASLAISGLRSEDEADYYCAAWDDSLSGWVFGGSTQLTVLA
[4]
  binding to 2D7-2SK peptide: bind preferentially and with high affinity
[3]; R5 HIV-1 envelopes, human CCR5 expressing cells
  inhibition of HIV syncytia formation, in words: positive
